For test [1], the system named is rat agmatinase. The test can be described thus: Agmatinase activity assay ([14C]-agmatine hydrolysis). The note with it: for Agmatinase activity remaining (%): Conc = 0.5 mM; for Activity for inhibiting agmatinase, in words: among the 14 test compounds. It is filed as biochemical. How it is done:
Agmatinase activity was measured by the method of Satishchandran and Boyle (1986) as detailed in Sastre et al. (1996). The assay is based on the hydrolysis of guanido [^14C]-agmatine to [^14C]-urea and putrescine, and subsequent trapping of [^14C]—CO2 from the labeled urea, by the addition of urease. Assays were carried out for 30 minutes at 37° C. in 300 μl of sample containing 100 mM HEPES, pH 7.8, 4 mM MgSO4, 1 mM dithiothreitol, 10 mM L-agmatine, 7 μM [^14C]-agmatine and 0.06 units of urease. Release of [^14C]—CO2 from [^14C]-urea was measured by trapping the [^14C]—CO2 in filter paper wicks saturated with benzethonium hydroxide. The reaction was stopped by injection of 40% trichloroacetic acid into the reaction chamber and the filters transferred to mini-vials containing 5 mL CYTOSCINT® cocktail (ICN Biomedicals), and counted for radioactivity by liquid scintillation spectrometry using a Beckman model LS 5801 scintillation counter.
(§1) QSAR were studied by ab initio Hartree-Fock calculations with the Gaussian 94 computer program (Frisch et al. 1995). Based on the optimized geometry and van der Waals radius of each atom, calculations were performed with BlogP and BlogW programs (Bodor et al. 1989, 1992A, and 1992B) to determine molecular surfaces, volumes, ovalities, partition coefficients, and water solubilities. Linear combinations of these calculated descriptors were then fitted to the observed enzyme activities. The observed activities were the remaining percentage of rat agmatinase activity at 0.5 mM of each compound, the remaining percentage of rat NOS isozyme activity at 1 mM of each compound, and the remaining percentage of rat brain NMDA receptor binding at 0.1 mM of each compound.

Test [2] deals with T1, rat eNOS (epithelial NOS) (Rattus norvegicus, UniProt Q62600).
T1 construct: purchased Cayman, Ann Arbor, Mich
Nature of the test: NOS activity, [3H]arginine to [3H]citrulline conversion, eNOS. The note with it: Conc = 1 mM. The format is biochemical. How it is done: (§2) NOS activity was measured by monitoring the conversion of [^3H]arginine to [^3H]citrulline (Bret et al. 1990) using three commercially available isoforms of rat NOS: nNOS (neuronal NOS) (602 units/ml, 14.9 mg/ml), iNOS (inducible NOS) (249.7 units/ml, 21.1 mg/ml), and eNOS (epithelial NOS) (30 units/ml, 14.6 mg/ml) (Cayman, Ann Arbor, Mich.). Neuronal NOS and iNOS were diluted 1:10, while eNOS was used directly without dilution. Unless otherwise indicated, each tube was incubated at 37° C. for 60 minutes. Assay buffer contained 50 mM Tris-HCl, pH7.4, 2 mM CaCl2, 1 mM NADPH, 10 mM BH4, 5 mM FAD, 5 mM FMN, and 10 mg/ml calmodulin plus radioactive precursor. After incubation, the assay reaction was halted by addition of 400 μl of buffer containing 5 mM EDTA and 50 mM HEPES. Equilibrated resin ([…], Dowex AG50WX-8 (Na^+ form) was added and the reaction mixture was transferred to spin cups and into cup holders. The mixture was passed through the Dowex AG50WX-8 resin and the filtrate collected in a spin cup. NOS activity was determined by counting the radioactivity in the flow-through (unbound) fraction. Each assay was measured in triplicate.
as §1

For test [3], the system named is rat brain NMDA receptor. Nature of the test: [3H]-MK801 binding assay in rat brain membranes. The note with it: Conc = 0.1 mM. The method, then:
The binding of [^3H]-MK801 to NMDA (N-methyl-D-aspartate) receptors was measured in rat brain membranes as described in Renolds et al. (1990). Briefly, the membranes were incubated in HEPES buffer (pH 7.4) containing 0.4 nM [^3H]-MK801, 100 μM glutamate, and 30 μM glycine for 1 hour at 25° C. The binding was terminated by rapid filtration over glass fiber filters and radioactivity counted. Nonspecific binding was defined using 50 μM unlabelled MK801.
QSAR were studied by ab initio Hartree-Fock calculations with the Gaussian 94 computer program (Frisch et al. 1995). Based on the optimized geometry and van der Waals radius of each atom, calculations were performed with BlogP and BlogW programs (Bodor et al. 1989, 1992A, and 1992B) to determine molecular surfaces, volumes, ovalities, partition coefficients, and water solubilities. Linear combinations of these calculated descriptors were then fitted to the observed enzyme activities.

Test [4] concerns the target T2, rat nNOS (neuronal NOS) (Rattus norvegicus, UniProt P29476).
T2 construct: purchased Cayman, Ann Arbor, Mich
The test can be described thus: NOS activity, [3H]arginine to [3H]citrulline conversion, nNOS. It is filed as biochemical. The note with it: Conc = 1 mM. The method, then:
as §2, §1

Test [5] has as its target T3, rat iNOS (inducible NOS) (Rattus norvegicus, UniProt Q06518).
T3 construct: purchased Cayman, Ann Arbor, Mich
The test can be described thus: NOS activity, [3H]arginine to [3H]citrulline conversion, iNOS. The format is biochemical. The note with it: Conc = 1 mM. How it is done:
as §2, §1

Here are results for eight molecules from US7347984B2, “Mammalian agmatinase inhibitory substance” (Jackson State University, priority 2004, dated 2008).

Counter-ions that a name gives are not always drawn.

Regarding `N=C(N)NCCCN` [3-Aminopropylguanidine], in test [1], the “Agmatinase activity remaining (%)” value came to 3.1% and the “Activity for inhibiting agmatinase, in words” value is recorded as “best activity”. The “Activity Remaining (%) eNOS” value in test [2] stood at 60.8%. Further, the “3H-MK801 Binding Remaining (%)” value in test [3] stood at 93.9%. For the same molecule, in test [4], the “Activity Remaining (%) nNOS” value is listed as 6.9%. Moreover, the “Activity Remaining (%) iNOS” value in test [5] worked out at 5.1%.

Consider `O=[N+]([O-])c1cccc2cn[nH]c12` [7-nitroindazole, reference compound], for which the remaining activity at 1000 µM in test [2] was determined as 0%; in test [4], 1%; in test [5] it was 1%.

Consider `N=CNCCCNCCCNC=N` [Bis (3-(N-Iminomethyl)-aminopropyl)amine], for which the “Agmatinase activity remaining (%)” value in test [1] was 38.0%. Further, in test [2], the “Activity Remaining (%) eNOS” value is on record as 88.7%. Besides, in test [3], the “3H-MK801 Binding Remaining (%)” value is on record as 99.7%. Moreover, the “Activity Remaining (%) nNOS” value in test [4] turned out to be 23.5%. In addition, the “Activity Remaining (%) iNOS” value in test [5] came to 65.2%.

Trans-4-Aminocyclohexyl guanidine: in test [1], the “Agmatinase activity remaining (%)” value is on record as 97.0% and the “Activity for inhibiting agmatinase, in words” value is on record as “best activity”. Further, the “Activity Remaining (%) eNOS” value in test [2] turned out to be 69.4%. Besides, the “Activity Remaining (%) nNOS” value in test [4] was determined as 42.5%. Moreover, in test [5], the “Activity Remaining (%) iNOS” value was determined as 99.6%.

Consider `N=C(N)NN` [Amino guanidine, reference compound], for which the “Agmatinase activity remaining (%)” value in test [1] is listed as 53%. In addition, the results for the remaining activity at 1000 µM in test [2], in test [4] and in test [5] were 30%, 20% and 1%, respectively. Moreover, the “3H-MK801 Binding Remaining (%)” value in test [3] is 90.6%.

As for `C=C[C@](N)(CCCNC(=N)N)C(=O)O` (racemic) [Alpha-Vinylarginine], in test [1], the “Agmatinase activity remaining (%)” value was found to be 52.0%. The remaining activity at 1000 µM in test [2] worked out at 67.4%; in test [4] it was 4.2%; in test [5], 7%. Also, in test [3], the “3H-MK801 Binding Remaining (%)” value is recorded as 99.7%.

Regarding `NC(N)=NCCCCN=C(N)N` [Arcaine sulfate, reference compound], the “Agmatinase activity remaining (%)” value in test [1] is recorded as 29.5%. Besides, the remaining activity at 1000 µM was determined as 83.4% in test [2], 9.8% in test [4] and 37.8% in test [5]. In addition, the “3H-MK801 Binding Remaining (%)” value in test [3] stood at 45.1%.

Regarding `N=C(N)NCCCCN.O=S(=O)(O)O` [Agmatine sulfate, reference compound], the “Agmatinase activity remaining (%)” value in test [1] was 37%. In addition, the remaining activity at 1000 µM is 97.4% in test [2], 32.5% in test [4] and 35.2% in test [5]. In addition, in test [3], the “3H-MK801 Binding Remaining (%)” value is reported as 93.8%.
